Patent US20240247048A1 (EMORY UNIVERSITY, priority 2021, published 2024)

Legend:
[1] = system: tumor infiltrating T cells in KPC-Luc tumors; experiment: analysis of tumor infiltrating T cells in subcutaneous KPC-Luc tumors (flow cytometry, Nanostring, TCR sequencing, tetramer); type: in vivo, mouse
Procedure: FIGS. 19A, 19B, 19C, 19D, 19E, 19F, 19G, 19H and 19I show increased T cell activation and reduced frequency of Tregs in KPC.Luc tumors treated with a combination of VIP-R antagonist and anti-PD-1. Subcutaneous KPC.Luc tumors in C57BL/6 mice treated with ANT008 and/or anti-PD-1 (n=5 per treatment group), were analyzed via flow cytometry 10 days after treatment for proportion of (FIG. 19A) CD4+ and (FIG. 19B) CD8+ T cells expressing Ki67, IFN gamma, IL-4, PD-1 and Tim-3. (FIG. 19C) Representative flow plots showing the gating strategy used to quantify CD25+FoxP3+ Tregs. (FIG. 19D) Percentage of Tregs in tumors of the different treatment groups (n=5 per treatment group). Volcano plot showing differential expression of genes in T cells from (FIG. 19E) ANT008+ isotype IgG (IgG) vs scrambled peptide (Scram)+ isotype IgG, (FIG. 19F) scrambled peptide+anti-PD-1 vs scrambled peptide+isotype IgG and (FIG. 19G) ANT008+anti-PD-1 vs scrambled peptide+isotype IgG (n=3 mice per treatment group). Horizontal black line represents false discovery rate (FDR)<0.1. […] (FIG. 19H) Heat map showing gene expression changes in genes associated with TCR activation and co-stimulation. (FIG. 19I) TCR activation and co-stimulation pathway score between the T cells in tumors of mice from the different treatment groups. Statistical differences in FIGS. 19A, 19B, 19D and 19I were calculated via ANOVA followed by Dunnett's post-test. Error bars show mean±SEM *p<0.05, **p<0.001, ***p<0.0001.
(FIG. 20A) Box and whiskers plot showing Shannon's Entropy in T cells of KPC.Luc tumors in each treatment group. (FIG. 20B) List showing TCR-0 amino acid sequences shared between samples of each treatment group and (FIG. 20C) the frequencies of the shared clones in each treatment group. Sequences are color coded to represent number of mice per group (n=4) that share the specific TCR-β clone. CD8+ in subcutaneous KPC.Luc tumors were stained with MuLV p15E-H2Kb tetramer after 10 days of treatment with ANT308 and/or anti-PD-1 (n=3 per treatment group) using the (FIG. 20D) gating strategy and (FIG. 20E) quantified. […] Statistical differences in a and e were calculated via ANOVA followed by Dunnett's post-test and in FIG. 20F and FIG. 20G were calculated using Log-rank test. […]
Increased T cell activation in tumors of mice treated with a combination of VIP-R antagonist and anti-PD-1. To investigate whether inhibiting VIP-R signaling promotes T cell activation in vivo, the study analyzed tumor infiltrating T cells in subcutaneous KPC-Luc tumors for differences in activation markers. […]

intraocular melanoma = experiment: liver metastases in intraocular melanoma mouse model; type: in vivo

Sequence	genes upregulated in TIL (Nanostring) ([1]; >4-fold change, FDR<0.1, FIG. 19e-19g)	frequency of Tregs within the PDAC tumors ([1]; FIG. 19c, 19d)	levels of PD-1+ Tim-3- T cells in CD4+ and CD8+ subsets ([1]; monotherapy, 10 days after treatment, FIG. 19a, 19b)	number of clones shared by at least 2 samples among top 50 highest frequency TCR clones ([1]; n=4 per group, FIG. 20b)	growth of liver metastases (intraocular melanoma; 3 weeks after tumor inoculation, N=6, FIG. 36)	size of intraocular melanoma (intraocular melanoma; FIG. 38)	angiogenesis of liver metastases (intraocular melanoma; N=10, FIG. 37)	hepatic metastases in 3 weeks (intraocular melanoma; n=6, FIG. 34)
KPRRPYTDNYTRLRKQMAVKKYLNLILN [ANT008]	no genes significantly upregulated	significantly decreased	increased	6				
KPRRPYTSDYTRLRKQMAVKKYLNLILN [ANT308]					suppressed growth	not affected	inhibited angiogenesis	decreased
